The values that follow are results of earlier work, collected in US6683076B2, “Methods for therapeutic use of glucosylceramide synthesis inhibitors and composition thereof” (Oxford Glyco-Sciences (UK) Ltd, priority 2000, dated 2004).

The structures appear in SMILES notation.

Data set [1] relates to glucosylceramide synthesis. The settings on record: cells treated with NB-DNJ; cited from earlier work.
A further data set deals with T1, alpha-glucosidase 1 (Homo sapiens, UniProt Q13724).
T1 sequence (Q13724 1-837): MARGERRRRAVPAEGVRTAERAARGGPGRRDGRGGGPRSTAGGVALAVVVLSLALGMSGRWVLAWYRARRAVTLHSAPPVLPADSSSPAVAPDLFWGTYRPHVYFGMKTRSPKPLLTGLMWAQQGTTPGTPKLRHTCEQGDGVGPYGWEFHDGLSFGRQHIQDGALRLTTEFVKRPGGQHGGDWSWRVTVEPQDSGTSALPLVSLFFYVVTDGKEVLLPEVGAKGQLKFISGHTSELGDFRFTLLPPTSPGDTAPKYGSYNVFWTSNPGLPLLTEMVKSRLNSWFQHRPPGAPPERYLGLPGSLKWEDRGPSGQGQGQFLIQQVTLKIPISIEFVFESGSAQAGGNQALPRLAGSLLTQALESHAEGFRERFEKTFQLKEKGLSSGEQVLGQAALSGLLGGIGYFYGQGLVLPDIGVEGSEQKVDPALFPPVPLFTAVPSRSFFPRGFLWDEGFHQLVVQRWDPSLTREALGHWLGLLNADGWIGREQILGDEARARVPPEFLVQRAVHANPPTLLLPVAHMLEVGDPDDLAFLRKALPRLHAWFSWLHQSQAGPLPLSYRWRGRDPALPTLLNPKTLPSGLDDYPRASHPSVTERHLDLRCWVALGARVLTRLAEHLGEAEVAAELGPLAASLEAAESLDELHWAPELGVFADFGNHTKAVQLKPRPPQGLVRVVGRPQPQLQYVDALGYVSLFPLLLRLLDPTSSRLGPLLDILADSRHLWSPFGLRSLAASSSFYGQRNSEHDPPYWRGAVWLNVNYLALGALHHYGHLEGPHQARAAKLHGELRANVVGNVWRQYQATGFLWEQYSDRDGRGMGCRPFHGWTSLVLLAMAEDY
The settings on record: cited from earlier work.

As for `CCCCN1C[C@H](O)[C@@H](O)[C@H](O)[C@H]1CO` [NB-DNJ, N-butyldeoxynojirimycin], the Glucosylceramide levels entry in data set [1] is “markedly reduced”. The “Inhibition of alpha-glucosidase 1” value at alpha-glucosidase 1 is on record as “potent inhibitor”.
